Results published in ChEMBL document CHEMBL2150995, “Identification of an Adamantyl Azaquinolone JNK Selective Inhibitor” (ACS Med Chem Lett, 2012).
≈ marks a conversion by molar mass, not a printed value. One block for each compound: values may come before it. Calls of active or inactive are those of the source. The calls are words filed in the database; no cut-off is given here.

Assays:
[1] = Cmax in C57 mouse at 75 mg/kg, po administered as MBP formulation; format: ADME, organism-based; set-up: dose 75 mg/kg, route oral; settings: in vivo
[2] = Cmax in C57 mouse at 30 mg/kg, po administered as DMSO formulation; format: ADME, organism-based; set-up: dose 30 mg/kg, route oral; settings: in vivo
[3] = Mean residence time in C57 mouse at 5 mg/kg, iv administered as DMSO formulation; format: ADME, organism-based; set-up: dose 5 mg/kg, route intravenous; settings: in vivo
[4] = Extrapolated AUC in C57 mouse at 5 mg/kg, iv administered as DMSO formulation; format: ADME, organism-based; set-up: dose 5 mg/kg, route intravenous; settings: in vivo
[5] = Half life in rat at 30 mg/kg, po administered as DMSO formulation; format: ADME, organism-based; set-up: dose 30 mg/kg, route oral; settings: in vivo
[6] = target: T1, Mitogen-activated protein kinase 8 (Homo sapiens, UniProt P45983); assay: Inhibition of JNK1-mediated c-jun phosphorylation in TNF-alpha stimulated human HK-2 cells after 30 mins by TR-FRET assay; format: cell-based
[7] = AUC in rat at 75 mg/kg, po administered as MBP formulation; format: ADME, organism-based; set-up: dose 75 mg/kg, route oral; settings: plasma
Rattus norvegicus [8] = assay: In vivo inhibition of JNK-mediated c-jun phosphorylation in Sprague-Dawley rat kidney at 75 mg/kg, po bid administered in MBP formulation 23 hrs prior TNF-alpha challenge measured 1 hr post challenge by Western blot method; format: functional, organism-based; set-up: dose 75 mg/kg
[9] = Volume of distribution in rat at 5 mg/kg, iv administered as DMSO formulation; format: ADME, organism-based; set-up: dose 5 mg/kg, route intravenous; settings: in vivo
[10] = AUC in C57 mouse at 75 mg/kg, po administered as MBP formulation; format: ADME, organism-based; set-up: dose 75 mg/kg, route oral; settings: plasma
[11] = target: T1, Mitogen-activated protein kinase 8; assay: Inhibition of JNK1 after 30 mins by TR-FRET assay
[12] = Mean residence time in rat at 5 mg/kg, iv administered as DMSO formulation; format: ADME, organism-based; set-up: dose 5 mg/kg, route intravenous; settings: in vivo
[13] = Drug uptake in C57 mouse liver at 30 mg/kg, po measured at 8 hrs; format: ADME, organism-based; set-up: dose 30 mg/kg, route oral; settings: read-out: Drug uptake
[14] = Volume of distribution in C57 mouse at 5 mg/kg, iv administered as DMSO formulation; format: ADME, organism-based; set-up: dose 5 mg/kg, route intravenous; settings: in vivo
[15] = Cmax in rat at 75 mg/kg, po administered as MBP formulation; format: ADME, organism-based; set-up: dose 75 mg/kg, route oral; settings: in vivo
[16] = Clearance in mouse hepatocytes; format: ADME, cell-based, Liver, Hepatocyte
[17] = Mean residence time in C57 mouse at 30 mg/kg, po; format: ADME, organism-based; set-up: dose 30 mg/kg, route oral; settings: in vivo
[18] = Half life in rat at 75 mg/kg, po administered as MBP formulation; format: ADME, organism-based; set-up: dose 75 mg/kg, route oral; settings: in vivo
[19] = Tmax in rat at 30 mg/kg, po administered as DMSO formulation; format: ADME, organism-based; set-up: dose 30 mg/kg, route oral; settings: in vivo
[20] = Plasma concentration in C57 mouse at 30 mg/kg, po measured at 8 hrs; format: ADME, organism-based; set-up: dose 30 mg/kg, route oral
[21] = AUC in rat at 30 mg/kg, po administered as DMSO formulation; format: ADME, organism-based; set-up: dose 30 mg/kg, route oral; settings: plasma
[22] = Volume of distribution at steady state in C57 mouse at 5 mg/kg, iv; format: ADME, organism-based; set-up: dose 5 mg/kg, route intravenous; settings: in vivo, read-out: Vdss
[23] = AUC (0 to 24 hrs) in C57 mouse at 5 mg/kg, iv; format: ADME, organism-based; set-up: time < 24 hr, dose 5 mg/kg, route intravenous; settings: plasma
[24] = Extrapolated AUC in rat at 5 mg/kg, iv administered as DMSO formulation; format: ADME, organism-based; set-up: dose 5 mg/kg, route intravenous; settings: in vivo
[25] = Solubility of the compound in acetonitrile/water at pH 6.5 by lyophilization solubility assay; format: physicochemical
[26] = Tmax in C57 mouse at 75 mg/kg, po administered as MBP formulation; format: ADME, organism-based; set-up: dose 75 mg/kg, route oral; settings: in vivo
Rattus norvegicus [27] = assay: In vivo inhibition of JNK-mediated c-jun phosphorylation in Sprague-Dawley rat kidney at 75 mg/kg, po tid administered in MBP formulation 23 hrs prior TNF-alpha challenge measured 1 hr post challenge by Western blot method; format: functional, organism-based; set-up: dose 75 mg/kg
[28] = AUC in C57 mouse at 30 mg/kg, po administered as DMSO formulation; format: ADME, organism-based; set-up: dose 30 mg/kg, route oral; settings: plasma
[29] = Clearance in rat at 5 mg/kg, iv administered as DMSO formulation; format: ADME, organism-based; set-up: dose 5 mg/kg, route intravenous; settings: in vivo
[30] = Drug uptake in C57 mouse kidney at 30 mg/kg, po measured at 8 hrs; format: ADME, organism-based; set-up: dose 30 mg/kg, route oral; settings: read-out: Drug uptake
[31] = Tmax in C57 mouse at 30 mg/kg, po administered as DMSO formulation; format: ADME, organism-based; set-up: dose 30 mg/kg, route oral; settings: in vivo
[32] = Half life in C57 mouse at 5 mg/kg, iv administered as DMSO formulation; format: ADME, organism-based; set-up: dose 5 mg/kg, route intravenous; settings: in vivo
[33] = Clearance in C57 mouse at 5 mg/kg, iv; format: ADME, organism-based; set-up: dose 5 mg/kg, route intravenous; settings: in vivo
[34] = Tmax in C57 mouse at 30 mg/kg, po; format: ADME, organism-based; set-up: dose 30 mg/kg, route oral; settings: in vivo
[35] = Half life in C57 mouse at 75 mg/kg, po administered as MBP formulation; format: ADME, organism-based; set-up: dose 75 mg/kg, route oral; settings: in vivo
[36] = Solubility of the compound in MeOH solvate by lyophilization solubility assay; format: physicochemical
[37] = Clearance in C57 mouse at 5 mg/kg, iv administered as DMSO formulation; format: ADME, organism-based; set-up: dose 5 mg/kg, route intravenous; settings: in vivo
[38] = AUC in C57 mouse at 30 mg/kg, po; format: ADME, organism-based; set-up: dose 30 mg/kg, route oral; settings: plasma
[39] = Clearance in mouse liver microsomes; format: ADME, Microsome
[40] = Half life in rat at 5 mg/kg, iv administered as DMSO formulation; format: ADME, organism-based; set-up: dose 5 mg/kg, route intravenous; settings: in vivo
[41] = Cmax in C57 mouse at 30 mg/kg, po; format: ADME, organism-based; set-up: dose 30 mg/kg, route oral; settings: in vivo
Rattus norvegicus [42] = assay: In vivo inhibition of JNK-mediated c-jun phosphorylation in Sprague-Dawley rat assessed as phosphorylated c-jun level in kidney at 75 mg/kg, po administered as single dose in MBP formulation 7 hrs prior TNF-alpha challenge measured 1 hr post challenge by Western blot method relative to untreated control; format: functional
[43] = Cmax in rat at 30 mg/kg, po administered as DMSO formulation; format: ADME, organism-based; set-up: dose 30 mg/kg, route oral; settings: in vivo
[44] = Tmax in rat at 75 mg/kg, po administered as MBP formulation; format: ADME, organism-based; set-up: dose 75 mg/kg, route oral; settings: in vivo

T1 sequence (P45983 whole entry): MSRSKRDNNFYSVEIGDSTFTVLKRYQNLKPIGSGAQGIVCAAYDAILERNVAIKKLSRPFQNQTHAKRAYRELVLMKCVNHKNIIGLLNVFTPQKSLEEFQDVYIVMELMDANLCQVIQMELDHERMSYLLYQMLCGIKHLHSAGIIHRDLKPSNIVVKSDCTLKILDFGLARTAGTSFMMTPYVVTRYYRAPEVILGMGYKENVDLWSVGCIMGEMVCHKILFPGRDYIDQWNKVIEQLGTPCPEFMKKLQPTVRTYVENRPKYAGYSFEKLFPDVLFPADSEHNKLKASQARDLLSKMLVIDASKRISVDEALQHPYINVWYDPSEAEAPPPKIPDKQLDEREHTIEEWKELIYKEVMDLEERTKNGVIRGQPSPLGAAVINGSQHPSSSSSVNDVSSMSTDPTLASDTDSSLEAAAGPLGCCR

Compound: COC(=O)c1c(Cc2ccc(C(=O)NC(C)(C)CO)cc2)c(=O)c2cccnc2n1-c1ccccc1
EC50 [6]: 9000 nM
IC50 [11]: 45 nM
concentration at 8 h [13]: 2490 nM
CLhep predicted [16]: 52.9 mL/min/kg
MRT [17]: 2.03 h
concentration at 8 h [20]: 380 nM
solubility [25]: 103 µg/mL (≈ 212 µM)
concentration at 8 h [30]: 620 nM
Tmax [34]: 0.25 h
AUC [38]: 7010 ng·h/mL
CLhep predicted [39]: 58 mL/min/kg
Cmax [41]: 3840 ng/mL

Compound: COC(=O)c1c(Cc2ccc(C(=O)N[C@H]3CC[C@H](O)CC3)cc2)c(=O)c2cccnc2n1-c1ccccc1
concentration at 8 h [13]: 5570 nM
MRT [17]: 3.45 h
concentration at 8 h [20]: 810 nM
Vd [22]: 0.73 L/kg
concentration at 8 h [30]: 1890 nM
Tmax [34]: 0.25 h

Compound: COC(=O)c1c(Cc2ccc(C(=O)NCC(C)(C)O)cc2)c(=O)c2cccnc2n1-c1ccccc1
concentration at 8 h [13]: 4000 nM
MRT [17]: 3.14 h
concentration at 8 h [20]: 740 nM
concentration at 8 h [30]: 1420 nM
Tmax [34]: 0.25 h

Compound: COC(=O)c1c(Cc2ccc(C(=O)NC3(CO)CC3)cc2)c(=O)c2cccnc2n1-c1ccccc1
EC50 [6]: 21000 nM
IC50 [11]: 45 nM
concentration at 8 h [13]: 4490 nM
CLhep predicted [16]: 33.2 mL/min/kg
MRT [17]: 1.73 h
concentration at 8 h [20]: 380 nM
solubility [25]: 138 µg/mL (≈ 285 µM)
concentration at 8 h [30]: 860 nM
Tmax [34]: 0.25 h
AUC [38]: 7480 ng·h/mL
CLhep predicted [39]: 45 mL/min/kg
Cmax [41]: 4370 ng/mL

Compound: COC(=O)c1c(Cc2ccc(C(=O)N[C@H](CO)C(C)(C)C)cc2)c(=O)c2cccnc2n1-c1ccccc1
concentration at 8 h [13]: 230 nM
MRT [17]: 1.42 h
concentration at 8 h [20]: 20 nM
concentration at 8 h [30]: 30 nM
Tmax [34]: 0.25 h

Compound: COC(=O)c1c(Cc2ccc(C(=O)NCCO)cc2)c(=O)c2ccc(Cl)cc2n1-c1ccccc1
EC50 [6]: 10100 nM
IC50 [11]: 44 nM
CLhep predicted [16]: 31.7 mL/min/kg
solubility [25]: 4.6 µg/mL (≈ 9.37 µM)
CLhep predicted [39]: 67 mL/min/kg

Further lines, with some results ahead:

Cmax [1]: 18100 ng/mL
Cmax [2]: 13600 ng/mL
MRT [3]: 0.6 h
AUC [4]: 9890 ng·h/mL
half-life [5]: 2.4 h
EC50 [6]: 4100 nM
AUC [7]: 252000 ng·h/mL
Vd [9]: 0.61 L/kg
AUC [10]: 49200 ng·h/mL
IC50 [11]: 12 nM
MRT [12]: 1.8 h
concentration at 8 h [13]: 2960 nM
Vd [14]: 0.3 L/kg
Cmax [15]: 30100 ng/mL
CLhep predicted [16]: 10.9 mL/min/kg
MRT [17]: 2.38 h
half-life [18]: 2 h
Tmax [19]: 4 h
concentration at 8 h [20]: 560 nM
AUC [21]: 48300 ng·h/mL
Vd [22]: 0.3 L/kg
AUC(0-t) at 24 h [23]: 9890 ng·h/mL
AUC [24]: 16300 ng·h/mL
solubility [25]: 14 µg/mL (≈ 24.8 µM)
Tmax [26]: 1 h
AUC [28]: 22400 ng·h/mL
clearance [29]: 6.4 mL/min/kg
concentration at 8 h [30]: 860 nM
Tmax [31]: 0.25 h
half-life [32]: 0.6 h
clearance [33]: 8.4 mL/min/kg
Tmax [34]: 0.25 h
half-life [35]: 1.62 h
solubility [36]: 14 µg/mL (≈ 24.8 µM)
clearance [37]: 8.4 mL/min/kg
AUC [38]: 22400 ng·h/mL
CLhep predicted [39]: 59 mL/min/kg
half-life [40]: 2.4 h
Cmax [41]: 13600 ng/mL
Cmax [43]: 8030 ng/mL
Tmax [44]: 4 h
Compound: COC(=O)c1c(Cc2ccc(C(=O)N[C@@H]3[C@@H]4C[C@@H]5C[C@H]3C[C@@](O)(C5)C4)cc2)c(=O)c2cccnc2n1-c1ccccc1
inhibition (Rattus norvegicus [8]): Active
inhibition (Rattus norvegicus [27]): Active
inhibition in vivo at 75 mg/kg (Rattus norvegicus [42]): 52%

solubility [25]: 21.9 µg/mL (≈ 38.9 µM)
Compound: COC(=O)c1c(Cc2ccc(C(=O)N[C@@H]3[C@@H]4C[C@@H]5C[C@H]3C[C@@](N)(C5)C4)cc2)c(=O)c2cccnc2n1-c1ccccc1

EC50 [6]: 8500 nM
IC50 [11]: 47 nM
solubility [25]: 25 µg/mL (≈ 44.4 µM)
CLhep predicted [39]: 81 mL/min/kg
Compound: COC(=O)c1c(Cc2ccc(C(=O)N[C@H]3[C@@H]4C[C@@H]5C[C@H]3C[C@@](O)(C5)C4)cc2)c(=O)c2cccnc2n1-c1ccccc1
